SMILES | melting point
Cn1c(=O)n(Cc2cccc(F)c2)c(=O)c2cc(C#CCc3ccccc3)ccc21 [Example 26, 3-(3-Fluoro-benzyl)-1-methyl-6-(3-phenyl-prop-1-ynyl)-1H-quinazoline-2,4-dione] | 143 to 144 °C
Cn1c(=O)n(Cc2ccc(F)c(F)c2)c(=O)c2cc(C#CCn3cncn3)ccc21 [Example 33, 3-(3,4-Difluoro-benzyl)-1-methyl-6-(3-[1,2,4]triazol-1-yl-prop-1-ynyl)-1H-quinazoline-2,4-dione] | 185 to 187 °C
CN(C)C(=O)c1ccc(Cn2c(=O)c3cc(C#CCc4ccccc4)ccc3n(C)c2=O)cc1 [Example 19, N,N-Dimethyl-4-[1-methyl-2,4-dioxo-6-(3-phenyl-prop-1-ynyl)-1,4-dihydro-2H-quinazolin-3-ylmethyl]-benzamide] | 171 to 173 °C
Cn1c(=O)n(Cc2ccc(F)c(F)c2)c(=O)c2cc(C#CCn3ccnn3)ccc21 [Example 32, 3-(3,4-Difluoro-benzyl)-1-methyl-6-(3-[1,2,3]triazol-1-yl-prop-1-ynyl)-1H-quinazoline-2,4-dione] | 167 to 169 °C
Cn1c(=O)n(Cc2ccc(Cl)c(Cl)c2)c(=O)c2cc(C#CCn3cncn3)ccc21 [Example 34, 3-(3,4-Dichloro-benzyl)-1-methyl-6-(3-[1,2,4]triazol-1-yl-prop-1-ynyl)-1H-quinazoline-2,4-dione] | 171 to 172 °C
Cn1c(=O)n(Cc2ccc(F)c(F)c2)c(=O)c2cc(C#CCn3ccnc3)ccc21 [Example 29, 3-(3,4-Difluoro-benzyl)-6-(3-imidazol-1-yl-prop-1-ynyl)-1-methyl-1H-quinazoline-2,4-dione] | 163 to 165 °C

Next, values leading:

melting point | SMILES
175 to 176 °C | Cn1c(=O)n(Cc2ccc(Cl)cc2)c(=O)c2cc(C#CCc3ccccc3)ccc21 [Example 27, 3-(4-Chloro-benzyl)-1-methyl-6-(3-phenyl-prop-1-ynyl)-1H-quinazoline-2,4-dione]
169 to 171 °C | Cn1c(=O)n(Cc2cccc(Cl)c2)c(=O)c2cc(C#CCc3ccc(Cl)cc3)ccc21 [Example 31, 3-(3-Chloro-benzyl)-6-[3-(4-chloro-phenyl)-prop-1-ynyl]-1-methyl-1H-quinazoline-2,4-dione]
161 to 164 °C | Cn1c(=O)n(Cc2ccc(CO)cc2)c(=O)c2cc(C#CCc3ccccc3)ccc21 [Example 24, 3-(4-Hydroxymethyl-benzyl)-1-methyl-6-(3-phenyl-prop-1-ynyl)-1H-quinazoline-2,4-dione]
164 to 166 °C | Cn1c(=O)n(Cc2cccc(Cl)c2)c(=O)c2cc(C#CCc3ccccc3)ccc21 [Example 25, 3-(3-Chloro-benzyl)-1-methyl-6-(3-phenyl-prop-ynyl)-1H-quinazoline-2,4-dione]
163 to 165 °C | Cn1c(=O)n(Cc2ccc(F)c(F)c2)c(=O)c2cc(C#CCc3ccc(Cl)cc3)ccc21 [Example 30, 6-[3-(4-Chloro-phenyl)-prop-1-ynyl]-3-(3,4-difluoro-benzyl)-1-methyl-1H-quinazoline-2,4-dione]

— patent publication US6962922B2, “Alkynylated quinazoline compounds” (Warner-Lambert Company LLC, priority 2001, dated 2005)
